Experimental findings from patent publication US20090176811A1, “Substituted 5,6,7,8-Tetrahydro-pyrido[4,3-d]pyrimidine-2-yl Compounds and 5,6,7,8-Tetrahydro-quinazoline-2-yl Compounds” (GRUENENTHAL GmbH, priority 2004, published 2009) are described below.

SMILES strings stand for the structures.

For one assay, the target named is T1, 5-HT transporter (Rattus norvegicus, UniProt P31652).
T1 construct: from tissue; host or cells: rat medulla and pons synaptosomes (P2 fraction)
Put plainly: 5-HT uptake inhibition in rat brain synaptosomes (medulla and pons). It counts as biochemical. From the text: (§1) I. Method for Determining Noradrenalin and 5-HT Uptake Inhibition:
(§2) Synaptosomes from rat brain regions are freshly isolated for in vitro studies, as described in the publication “The isolation of nerve endings from brain” by E. G. Gray and V. P. Whittaker, J. Anatomy 96, pages 79-88, 1962. The corresponding literature description is hereby introduced as a reference and is deemed to be part of the disclosure.
(§3) The tissue (hypothalamus for the determination of noradrenalin uptake inhibition and medulla and pons for the determination of 5-HT uptake inhibition) is homogenised in ice-cooled 0.32 M sucrose (100 mg of tissue/1 mL) in a glass homogeniser with Teflon pestle using five complete up and down strokes at 840 revolutions/minute.
(§4) The homogenate is centrifuged at 4° C. for 10 minutes at 1000 g. After subsequent centrifugation at 17000 g for 55 minutes, the synaptosomes (P2 fraction) are obtained, which are resuspended in 0.32 M […] (0.5 mL/100 mg of original weight).
(§5) The particular uptake is measured in a 96-well microtitre plate. The volume is 250 μl and the incubation proceeds at room temperature (approx. 20-25° C.) under an O2 atmosphere.
(§6) The incubation time is 7.5 minutes for [^3H]-NA and 5 minutes for [^3H]-5-HT.
(§7) The 96 samples are then filtered through a Unifilter GF/B microtitre plate (Packard) and washed with 200 mL of incubated buffer using a “Brabdel MPXRI-96T Cell-Harvester”. The Unifilter GF/B plate is dried for 1 hour at 55° C. The plate is then sealed with a Back seal (Packard) and 35 μl of scintillation fluid are added per well (Ultima Gold, Packard). After sealing with a top seal (Packard) and establishing an equilibrium (around 5 hours), radioactivity is determined in a “Trilux 1450 Microbeta” (Wallac).
(§8) The quantity of protein used in the above determination corresponds to the values known from the literature, as for example described in “Protein measurement with the folin phenol reagent”, Lowry et al., J. Biol. Chem., 193, 265-275, 1951.
(§9) A detailed description of the method may additionally be found in the literature, for example in M. Ch. Frink, H.-H. Hennies, W. Engelberger, M. Haurand and B. Wilffert (1996) Arzneim.-Forsch./Drug Res. 46 (III), 11, 1029-1036.
(§10) The corresponding literature descriptions are hereby introduced in each case as a reference and are deemed to be part of the present disclosure.
(§11) The following characteristics were determined for the NA or 5-HT transporter: […]

Another assay has as its target T2, NA transporter (Rattus norvegicus, UniProt Q63380).
T2 construct: from tissue; host or cells: rat hypothalamus synaptosomes (P2 fraction)
Put plainly: Noradrenalin uptake inhibition in rat brain synaptosomes (hypothalamus). The class given is biochemical.
Text: as §1, §2, §3, §4, §5, §6, §7, §8, §9, §10, §11

T2 sequence (Q63380 1-617): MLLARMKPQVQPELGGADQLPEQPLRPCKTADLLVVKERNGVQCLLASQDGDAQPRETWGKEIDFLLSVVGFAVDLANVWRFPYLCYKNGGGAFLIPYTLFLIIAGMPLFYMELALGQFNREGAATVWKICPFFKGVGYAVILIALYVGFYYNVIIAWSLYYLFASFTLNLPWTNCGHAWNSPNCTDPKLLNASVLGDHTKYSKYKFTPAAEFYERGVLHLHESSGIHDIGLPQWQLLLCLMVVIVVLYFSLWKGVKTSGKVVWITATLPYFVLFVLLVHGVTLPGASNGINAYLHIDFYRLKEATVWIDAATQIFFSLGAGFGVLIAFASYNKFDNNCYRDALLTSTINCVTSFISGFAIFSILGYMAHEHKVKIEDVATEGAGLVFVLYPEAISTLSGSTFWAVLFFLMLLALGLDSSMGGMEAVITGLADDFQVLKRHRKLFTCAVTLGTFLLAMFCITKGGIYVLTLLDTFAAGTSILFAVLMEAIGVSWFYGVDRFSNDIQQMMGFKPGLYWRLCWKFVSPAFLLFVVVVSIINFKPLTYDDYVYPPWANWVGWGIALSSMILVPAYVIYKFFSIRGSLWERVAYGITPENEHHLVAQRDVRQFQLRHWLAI
T1 sequence (P31652 whole entry): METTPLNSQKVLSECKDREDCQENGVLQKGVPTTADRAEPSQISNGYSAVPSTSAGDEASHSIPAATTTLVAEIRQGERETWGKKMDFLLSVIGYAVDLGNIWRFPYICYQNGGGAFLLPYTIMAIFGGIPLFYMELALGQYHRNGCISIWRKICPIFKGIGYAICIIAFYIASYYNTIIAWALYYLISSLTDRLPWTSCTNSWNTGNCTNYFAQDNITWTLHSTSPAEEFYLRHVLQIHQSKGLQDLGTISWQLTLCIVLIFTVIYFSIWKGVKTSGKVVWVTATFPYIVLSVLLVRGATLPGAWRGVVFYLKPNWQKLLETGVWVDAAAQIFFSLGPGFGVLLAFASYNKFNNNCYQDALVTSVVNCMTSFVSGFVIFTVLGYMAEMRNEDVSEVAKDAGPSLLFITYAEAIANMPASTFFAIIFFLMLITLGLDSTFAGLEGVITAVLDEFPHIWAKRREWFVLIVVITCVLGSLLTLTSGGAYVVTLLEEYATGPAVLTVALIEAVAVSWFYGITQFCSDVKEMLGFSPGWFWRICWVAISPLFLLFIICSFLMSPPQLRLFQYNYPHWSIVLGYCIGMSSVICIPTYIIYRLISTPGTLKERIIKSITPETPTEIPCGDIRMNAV

With `O=C(Nc1ncc2c(n1)CCN(C(=O)c1c(F)cccc1Cl)C2)c1cccc(Cl)c1` [Example 127, 3-chloro-N-[6-(2-chloro-6-fluoro-benzoyl)-5,6,7,8-tetrahydro-pyrido[4,3-d]pyrimidin-2-yl]-benzamide], on 5-HT transporter, testing at 1 µM gave an inhibition of 35%. At 10 µM the inhibition against NA transporter was 71%.
Consider `O=C(Nc1ncc2c(n1)CCN(C(=O)c1sc3ccccc3c1Cl)C2)c1cccs1` [Example 110, thiophene-2-carboxylic acid [6-(3-chloro-benzo[b]thiophene-2-carbonyl)-5,6,7,8-tetrahydro-pyrido[4,3-d]pyrimidin-2-yl]-amide], for which, at 5-HT transporter, the inhibition at 1 µM stood at 96%. At NA transporter, this compound had an inhibition at 10 µM of 75%.
The matching figures for `O=C(Nc1ncc2c(n1)CCN(S(=O)(=O)c1ccc(OC(F)(F)F)cc1)C2)c1ccc(Cl)c(Cl)c1` [Example 134, 3,4-dichloro-N-[6-(4-trifluoromethoxy-benzenesulfonyl)-5,6,7,8-tetrahydro-pyrido[4,3-d]pyrimidin-2-yl]-benzamide]: 58% and 59%.
For `Cc1cccc(C(=O)Nc2ncc3c(n2)CCN(S(=O)(=O)c2cccc(C)c2)C3)c1` [Example 116, 3-methyl-N-[6-(toluene-3-sulfonyl)-5,6,7,8-tetrahydro-pyrido[4,3-d]pyrimidin-2-yl]-benzamide], at 5-HT transporter, the inhibition at 1 µM turned out to be 31%. On NA transporter, this compound had an inhibition at 10 µM of 52%.
For the compound `O=C(Nc1ncc2c(n1)CCN(C(=O)C1=Cc3ccccc3OC1)C2)c1ccc(F)c(F)c1` [Example 175, N-[6-(2H-chromene-3-carbonyl)-5,6,7,8-tetrahydro-pyrido[4,3-d]pyrimidin-2-yl]-3,4-difluoro-benzamide], the inhibition at 1 µM on 5-HT transporter was 32%. For the same compound, at NA transporter, the inhibition at 10 µM amounted to 46%.
Take `CCc1ccc(C(=O)Nc2ncc3c(n2)CCN(C(=O)c2ccc(Cl)c(Cl)c2)C3)cc1` [Example 101, N-[6-(3,4-dichloro-benzoyl)-5,6,7,8-tetrahydro-pyrido[4,3-d]pyrimidin-2-yl]-4-ethyl-benzamide]: 1 µM produced 65% inhibition against 5-HT transporter. Moreover, at NA transporter, the inhibition at 10 µM is 84%.
In turn, `CCc1ccc(C(=O)Nc2ncc3c(n2)CCN(S(=O)(=O)c2ccc4c(c2)CN(C(=O)C(F)(F)F)CC4)C3)cc1` [Example 157, 4-ethyl-N-{6-[2-(2,2,2-trifluoro-acetyl)-1,2,3,4-tetrahydro-isoquinoline-7-sulfonyl]-5,6,7,8-tetrahydro-pyrido[4,3-d]pyrimidin-2-yl}-benzamide] returned an inhibition at 1 µM against 5-HT transporter of 43%. This compound also yielded an inhibition at 10 µM on NA transporter of 61%.
On to `O=C(Nc1ncc2c(n1)CCN(C(=O)CCCCc1ccccc1)C2)c1ccccc1` [Example 190, N-[6-(5-phenyl-pentanoyl)-5,6,7,8-tetrahydro-pyrido[4,3-d]pyrimidin-2-yl]-benzamide], for which, on 5-HT transporter, testing at 1 µM gave an inhibition of 36%. Further, testing at 10 µM against NA transporter gave an inhibition of 73%.
Compound `O=C(Nc1ncc2c(n1)CCN(C(=O)C1CCc3ccccc3C1)C2)c1cccc(F)c1` (stereo not shown) [Example 141, 3-fluoro-N-[6-(1,2,3,4-tetrahydro-naphthalene-2-carbonyl)-5,6,7,8-tetrahydro-pyrido[4,3-d]pyrimidin-2-yl]-benzamide] had an inhibition at 1 µM against 5-HT transporter of 54%. For the same compound, the inhibition at 10 µM against NA transporter was 55%.
In turn, `CC(C)(C)c1ccc(C(=O)Nc2ncc3c(n2)CCN(S(=O)(=O)c2ccc4c(c2)OCCO4)C3)cc1` [Example 186, 4-tert-butyl-N-[6-(2,3-dihydro-benzo[1,4]dioxin-6-sulfonyl)-5,6,7,8-tetrahydro-pyrido[4,3-d]pyrimidin-2-yl]-benzamide] showed an inhibition at 1 µM at 5-HT transporter of 46%. The inhibition at 10 µM at NA transporter came out at 82%.
In turn, `O=C(Nc1ncc2c(n1)CCN(S(=O)(=O)c1ccc(Cl)s1)C2)c1cccc2ccccc12` [Example 117, naphthalene-1-carboxylic acid [6-(5-chloro-thiophene-2-sulfonyl)-5,6,7,8-tetrahydro-pyrido[4,3-d]pyrimidin-2-yl]-amide] came in with an inhibition at 1 µM against 5-HT transporter of 32%. The inhibition at 10 µM against NA transporter is 31%.
At 5-HT transporter, `O=C(Nc1ncc2c(n1)CCN(C(=O)Cc1ccc(Cl)cc1)C2)c1ccc(Cl)c(Cl)c1` [Example 126, 3,4-dichloro-N-{6-[2-(4-chloro-phenyl)-acetyl]-5,6,7,8-tetrahydro-pyrido[4,3-d]pyrimidin-2-yl}-benzamide] had an inhibition at 1 µM of 55%. This compound returned an inhibition at 10 µM against NA transporter of 89%.
On to `COc1ccccc1C(=O)Nc1ncc2c(n1)CCN(S(=O)(=O)c1c(C)cc(OC)c(C)c1C)C2` [Example 158, 2-methoxy-N-[6-(4-methoxy-2,3,6-trimethyl-benzenesulfonyl)-5,6,7,8-tetrahydro-pyrido[4,3-d]pyrimidin-2-yl]-benzamide], for which, on 5-HT transporter, 1 µM produced 55% inhibition. The compound also returned an inhibition at 10 µM against NA transporter of 36%.
In turn, `O=C(Nc1ncc2c(n1)CCN(C(=O)c1sc3ccccc3c1Cl)C2)c1ccccc1` [Example 120, N-[6-(3-chloro-benzo[b]thiophene-2-carbonyl)-5,6,7,8-tetrahydro-pyrido[4,3-d]pyrimidin-2-yl]-benzamide] returned an inhibition at 1 µM on 5-HT transporter of 92%. In addition, on NA transporter, 10 µM produced 78% inhibition.
`O=C(Nc1ncc2c(n1)CCN(S(=O)(=O)c1ccc(Cl)cc1)C2)c1ccc(Cl)c(Cl)c1` [Example 71, 3,4-dichloro-N-[6-(4-chloro-benzenesulfonyl)-5,6,7,8-tetrahydro-pyrido[4,3-d]pyrimidin-2-yl]-benzamide] showed an inhibition at 1 µM against 5-HT transporter of 47%. In addition, on NA transporter, the inhibition at 10 µM is 74%.
With `Cc1ccc(C(=O)N2CCc3nc(NC(=O)c4ccc(C(C)(C)C)cc4)ncc3C2)cc1[N+](=O)[O-]` [Example 92, 4-tert-butyl-N-[6-(4-methyl-3-nitro-benzoyl)-5,6,7,8-tetrahydro-pyrido[4,3-d]pyrimidin-2-yl]-benzamide], on 5-HT transporter, the inhibition at 1 µM worked out at 66%. Also, testing at 10 µM at NA transporter gave an inhibition of 35%.
Turning to `CCc1ccc(C(=O)Nc2ncc3c(n2)CCN(S(=O)(=O)c2ccccc2Cl)C3)cc1` [Example 114, N-[6-(2-chloro-benzenesulfonyl)-5,6,7,8-tetrahydro-pyrido[4,3-d]pyrimidin-2-yl]-4-ethyl-benzamide], the inhibition at 1 µM against 5-HT transporter stood at 50%. Further, the inhibition at 10 µM against NA transporter turned out to be 73%.
The matching figures for `CC(C)(C)c1ccc(C(=O)Nc2ncc3c(n2)CCN(C(=O)c2csc4ccccc24)C3)cc1` [Example 184, N-[6-(benzo[b]thiophene-3-carbonyl)-5,6,7,8-tetrahydro-pyrido[4,3-d]pyrimidin-2-yl]-4-tert-butyl-benzamide]: 48% and 69%.
On 5-HT transporter, `Cc1cc(C)c(C)c(S(=O)(=O)N2CCc3nc(NC(=O)c4cccs4)ncc3C2)c1C` [Example 99, thiophene-2-carboxylic acid [6-(2,3,5,6-tetramethyl-benzenesulfonyl)-5,6,7,8-tetrahydro-pyrido[4,3-d]pyrimidin-2-yl]-amide] gave an inhibition at 1 µM of 41%. Moreover, testing at 10 µM against NA transporter gave an inhibition of 56%.
`CC(C)(C)c1ccc(C(=O)Nc2ncc3c(n2)CCN(S(=O)(=O)c2ccc([N+](=O)[O-])cc2)C3)cc1` [Example 83, 4-tert-butyl-N-[6-(4-nitro-benzenesulfonyl)-5,6,7,8-tetrahydro-pyrido[4,3-d]pyrimidin-2-yl]-benzamide] yielded an inhibition at 1 µM at 5-HT transporter of 39%. Also, at NA transporter, the inhibition at 10 µM was 77%.

A word on the inhibition: it is the relative decrease from the control value, in per cent.
